In brackets after ≈: the same amount, converted by molar mass.
Columns and labels:
[1] = tested on: human erytroblast leukemia HEL-92.1.7 cells; experiment: Growth inhibition test (MTS) on HEL-92.1.7 cells; type: cell-based; conditions: 72 hours, read-out: HEL92 ED50
Protocol: (§1) Ten thousand cells of human erytroblast leukemia HEL-92.1.7 were inoculated into each well of a 96-well microplate (manufactured by Corning Corp.) using RPMI 1640 medium (culture medium) containing 10% fetal calf serum (FCS). Next day, a dimethyl sulfoxide (DMSO) solution of each test compound prepared in a concentration of 10 mmol/L was further diluted with culture medium to the desired concentrations (0.1, 0.5, 1, 2.5, 5 and 10 micromol/L), and the diluted solution was added to each well. The individual wells were further cultured in 5% carbon dioxide at 37° C. for 72 hours. After completion of the culture, 10 μl MTS (3-(4,5-Dimethyl-2-thiazolyl)-5-(carboxymethoxyphenyl)-2-(4-sulfophenyl)-2H-tetrazolium, inner salt assay (CellTiter96® AQueous One Solution Cell Proliferation Assay, Promega) was added to each well, and culturing was performed in 5% carbon dioxide at 37° C. for 2 hours. Using a microplate spectrophotometer (Synergy 2 multi-mode microplate reader (BioTek)), the absorbance of each well was measured at 490 nm. The value for cells not incorporated with a test compound was designated as 100%. By comparing these values with the absorbance difference obtained at the well in which each test compound was added, the cell viability (% viability) after treatment with the test compound was calculated.

[2] = tested on: human breast adenocarcinoma MCF7 cells; experiment: Growth inhibition test (MTS) on MCF7 cells; type: cell-based; conditions: Homo sapiens, MCF7, 72 hours, read-out: MCF-7 ED50
In short: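 MCF7 cells seeded in DMEM with 10% FCS, dosed next day at 0.1–10 micromol/L (diluted from 10 mmol/L DMSO stock) and cultured 72 h at 37° C, 5% CO2. MTS added for 2 h, absorbance read at 490 nm; % viability calculated relative to untreated cells as 100%.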

[3] = tested on: human chronic myelocytic leukemia K562 cells; experiment: Growth inhibition test (MTS) on K562 cells; type: cell-based; conditions: Homo sapiens, K562, 72 hours, read-out: K562 ED50
Protocol: as §1, with “chronic myelocytic” for “erytroblast”, “K562” for “HEL-92.1.7”, “Iscove's MDM” for “RPMI 1640”

[4] = tested on: tumors derived from MV4-11 cells xenografted in nude mice; experiment: In vivo anticancer activity, MV4-11 xenograft; conditions: QD, PO; for TGI (%): 150 mg/kg, 21 days, MV4-11 xenograft in nude mice; for tumor growth inhibition (in words): after 21 days of treatment
Protocol: The anticancer activity of compounds 20, 359 and 416 was assessed on tumors derived from MV4-11 cells xenografted in nude mice. Mice were inoculated with 5*10^6 cells and the tumor volume was measured until it reached 100 mm^3. Throughout the whole study tumor volume has been measured (FIG. 2) and tumor growth inhibition (TGI) was calculated.

[5] = tested on: human acute lymphocytic leukemia E6.1 Jurkat cells; experiment: Growth inhibition test (MTS) on E6.1 Jurkat cells; type: cell-based; conditions: 72 hours, read-out: Jurkat ED50
[6] = Solubility in phosphate buffer pH 7.4; type: physicochemical; conditions: aqueous buffer, kinetic from dmso stock, pH 7.4, 24 hours at 37° C., 1% DMSO
Text: In general, tetrahalogenated benzimidazoles are poorly soluble compounds, what renders their chances for successful therapeutic administration in commonly used routes of administration and standard conditions. In contrast to previously published tetrabromobenzimidazoles exemplified by DMAT, certain compounds provided in the application show a markedly increase in water solubility. As solubility is one of the key parameters that influences compound pharmacokinetics, permeability and therefore also activity in vitro and in vivo, improved solubility of the selected compounds is a surprising feature that can lead to improved efficacy in treating PIM kinase associated disease conditions.

CN(C)C1CCCN(c2nc3c(Br)c(Br)c(Br)c(Br)c3[nH]2)C1 (centres unmarked) [Compound 378, 1-(4,5,6,7-tetrabromo-1H-benzo[d]imidazol-2-yl)-N,N-dimethylpiperidin-3-amine]
IC50 [1]: 9.04 µM | IC50 [2]: 6190 nM

Brc1c(Br)c(Br)c2[nH]c(N3CCC(C4CCNCC4)CC3)nc2c1Br [Compound 386, 4,5,6,7-tetrabromo-2-(4-(piperidin-4-yl)piperidin-1-yl)-1H-benzo[d]imidazole]
IC50 [3]: 2.86 µM | IC50 [1]: 6.12 µM | IC50 [2]: 2470 nM

Brc1c(Br)c(Br)c2c(nc(N3CCNCC3)n2Cc2ccccc2)c1Br [Compound 374, 1-benzyl-4,5,6,7-tetrabromo-2-(piperazin-1-yl)-1H-benzo[d]imidazole]
IC50 [3]: 2.94 µM | IC50 [1]: 3 µM | IC50 [2]: 1500 nM

Brc1c(Br)c(Br)c2[nH]c(NC3CCCNCC3)nc2c1Br (centres unmarked) [Compound 366, N-(azepan-4-yl)-4,5,6,7-tetrabromo-1H-benzo[d]imidazol-2-amine]
IC50 [3]: 5.04 µM | IC50 [1]: 5.1 µM | IC50 [2]: 2150 nM

CC(C)n1c(N2CCNCC2)nc2c(Br)c(Br)c(Br)c(Br)c21 [Compound 359, 4,5,6,7-tetrabromo-1-isopropyl-2-(piperazin-1-yl)-1H-benzo[d]imidazole]
IC50 [3]: 3.05 µM | IC50 [1]: 3.85 µM | IC50 [2]: 1600 nM | TGI (%) [4]: −84.7% | tumor growth inhibition (in words) [4]: most pronounced tumor growth inhibition

CN(C)c1nc2c(Br)c(Br)c(Br)c(Br)c2n1CC(=O)O [Compound K66, 1-carboxymethyl-2-dimethylamino-4,5,6,7-tetrabromo-benzimidazole, reference compound]
IC50 [5]: > 10 µM | IC50 [3]: > 10 µM

CN1CCCC(Nc2nc3c(Br)c(Br)c(Br)c(Br)c3[nH]2)CC1 (centres unmarked) [Compound 358, 4,5,6,7-tetrabromo-N-(1-methylazepan-4-yl)-1H-benzo[d]imidazol-2-amine]
IC50 [3]: 6.64 µM | IC50 [1]: 7.65 µM | IC50 [2]: 3030 nM

NC1CCCC(Nc2nc3c(Br)c(Br)c(Br)c(Br)c3[nH]2)C1 (centres unmarked) [Compound 336, N1-(4,5,6,7-tetrabromo-1H-benzo[d]imidazol-2-yl)cyclohexane-1,3-diamine]
IC50 [3]: 6.88 µM | IC50 [2]: 6200 nM

CCn1c(N2CCN(CCN3CCNCC3)CC2)nc2c(Br)c(Br)c(Br)c(Br)c21 [Compound 441, 4,5,6,7-tetrabromo-1-ethyl-2-(4-(2-(piperazin-1-yl)ethyl)piperazin-1-yl)-1H-benzo[d]imidazole]
IC50 [3]: 1.65 µM | IC50 [1]: 0.6 µM | IC50 [2]: 1300 nM

CC(C)NC1CCCCC1Nc1nc2c(Br)c(Br)c(Br)c(Br)c2[nH]1 (centres unmarked) [Compound 369, N1-(4,5,6,7-tetrabromo-1H-benzo[d]imidazol-2-yl)-N2-isopropylcyclohexane-1,2-diamine]
IC50 [3]: 3.53 µM | IC50 [1]: 6.2 µM | IC50 [2]: 1600 nM

Brc1c(Br)c(Br)c2[nH]c(N[C@H]3COC[C@@H]3N3CCCC3)nc2c1Br [Compound 337, 4,5,6,7-tetrabromo-N-((3R,4R)-tetrahydro-4-(pyrrolidin-1-yl)furan-3-yl)-1H-benzo[d]imidazol-2-amine]
IC50 [3]: 3.02 µM | IC50 [1]: 4.5 µM | IC50 [2]: 1780 nM

C[C@@H]1CN(c2nc3c(Br)c(Br)c(Br)c(Br)c3[nH]2)[C@@H](C)CN1 [Compound 364, 4,5,6,7-tetrabromo-2-((2S,5R)-2,5-dimethylpiperazin-1-yl)-1H-benzo[d]imidazole]
IC50 [3]: 5.21 µM | IC50 [1]: 5.57 µM | IC50 [2]: 1600 nM

NCc1ccccc1CNc1nc2c(Br)c(Br)c(Br)c(Br)c2[nH]1 [Compound 349, N-(2-(aminomethyl)benzyl)-4,5,6,7-tetrabromo-1H-benzo[d]imidazol-2-amine]
IC50 [3]: 6.51 µM | IC50 [1]: 6 µM | IC50 [2]: 2750 nM

Brc1c(Br)c(Br)c2[nH]c(N[C@H]3COC[C@@H]3N3CCCCC3)nc2c1Br [Compound 338, 4,5,6,7-tetrabromo-N-((3R,4R)-tetrahydro-4-(piperidin-1-yl)furan-3-yl)-1H-benzo[d]imidazol-2-amine]
IC50 [3]: 5.03 µM | IC50 [1]: 5.68 µM | IC50 [2]: 2500 nM

Brc1c(Br)c(Br)c2[nH]c(NC3CCNCC3)nc2c1Br [Compound 435, 4,5,6,7-tetrabromo-N-(piperidin-4-yl)-1H-benzo[d]imidazol-2-amine]
IC50 [3]: 5.64 µM | IC50 [1]: 5.71 µM | IC50 [2]: 3490 nM

Brc1c(Br)c(Br)c2[nH]cnc2c1Br [TBI, 4,5,6,7-tetrabromo-1H-benzimidazole, reference compound]
IC50 [5]: > 10 µM | IC50 [3]: > 10 µM

NC1CCC(Nc2nc3c(Br)c(Br)c(Br)c(Br)c3[nH]2)CC1 (centres unmarked) [Compound 87, N1-(4,5,6,7-tetrabromo-1H-benzo[d]imidazol-2-yl)cyclohexane-1,4-diamine]
IC50 [5]: 5.81 µM | IC50 [3]: 5.59 µM | IC50 [1]: 9.07 µM | IC50 [2]: 5620 nM

CN(C)c1nc2c(Br)c(Br)c(Br)c(Br)c2[nH]1 [DMAT, 2-dimethylamino-4,5,6,7-tetrabromo-1H-benzimidazole, reference compound]
IC50 [5]: 8.18 µM | IC50 [3]: > 10 µM | IC50 [2]: > 10000 nM | solubility at 24 h [6]: < 10 µM

CCCn1c(N2CCNCC2)nc2c(Br)c(Br)c(Br)c(Br)c21 [Compound 417, 4,5,6,7-tetrabromo-2-(piperazin-1-yl)-1-propyl-1H-benzo[d]imidazole]
IC50 [3]: 4.96 µM | IC50 [1]: 3.28 µM | IC50 [2]: 2540 nM

Brc1c(Br)c(Br)c2c(Br)n[nH]c2c1Br [Compound K64, 3,4,5,6,7-pentabromo-1H-indazole, reference compound]
IC50 [5]: > 10 µM | IC50 [3]: > 10 µM

CCCCCNC1CCCCC1Nc1nc2c(Br)c(Br)c(Br)c(Br)c2[nH]1 (centres unmarked) [Compound 413, N1-(4,5,6,7-tetrabromo-1H-benzo[d]imidazol-2-yl)-N2-pentylcyclohexane-1,2-diamine]
IC50 [3]: 2.73 µM | IC50 [1]: 3.29 µM | IC50 [2]: 1300 nM

Brc1c(Br)c(Br)c2[nH]c(N3CCNCC3)nc2c1Br [Compound 20, 4,5,6,7-tetrabromo-2-(piperazin-1-yl)-1H-benzo[d]imidazole]
IC50 [3]: 6.46 µM | IC50 [1]: 6.04 µM | IC50 [2]: 2470 nM | TGI (%) [4]: −57.8% | tumor growth inhibition (in words) [4]: most pronounced tumor growth inhibition | solubility at 24 h [6]: 81 µM (≈ 41.9 µg/mL)

CCn1c(N2CCN(CCCN3CCOCC3)CC2)nc2c(Br)c(Br)c(Br)c(Br)c21 [Compound 450]
IC50 [3]: 2.9 µM | IC50 [1]: 0.8 µM | IC50 [2]: 2000 nM

Brc1c(Br)c(Br)c2[nH]nnc2c1Br [TBB, 4,5,6,7-tetrabromo-1Hbenzotriazole, reference compound]
IC50 [5]: > 10 µM | IC50 [3]: > 10 µM

NCCCNc1nc2c(Br)c(Br)c(Br)c(Br)c2[nH]1 [Compound 11, N-(3-aminopropyl)-4,5,6,7-tetrabromo-1H-benzo[d]imidazol-2-amine]
IC50 [5]: 3.46 µM | IC50 [3]: 7.47 µM | IC50 [1]: 5.7 µM | IC50 [2]: 4700 nM
